The conditions of data set [1]: white crystalline powder from Mallinckrodt Pharmaceuticals; cited from earlier work.
For another data set, the target named is μ opioid (Homo sapiens, UniProt P35372). The following applies: from WO2006/127898 and WO2006/127899; cited from earlier work.
A short description of data set [2]: Partition coefficient determination (1-octanol/water). Type of data set: physicochemical. Particulars: pH: 2.2. The procedure:
The partition coefficient of Compound I-1 was determined by the following method. • 1. 20.131 mg of Compound I-1 was dissolved in 2 mL of water saturated with 1-octanol. • 2. 2 mL of 1-octanol saturated with water was added to the solution from step 1. • 3. The two layers were shaken over night at room temperature. • 4. The two layers were analyzed for the concentration of Compound I-1.

Another data set can be described thus: Aqueous solubility. Type of data set: physicochemical. The following applies: thermodynamic from solid; pH: 2.2, water. As to the method:
>56 mg/ml (pH: 2.2) by adding certain additive amounts of I-1 to 1 ml of water.

The next data set deals with Delta 2 (h) (Homo sapiens, UniProt P41143). Nature of the data set: Neurotransmitter assay (radioligand binding), Delta 2 (h). The following applies: radioligand [3H]-Naltrindole.
Another data set deals with Kappa 1 (UniProt P41144). Type of data set: binding.
The next data set addresses Mu (h) (Homo sapiens, UniProt P35372). Type of data set: binding.
For data set [3], the target named is T1, human recombinant Mu opioid receptors (Homo sapiens, UniProt P35372).
T1 construct: expressed in transfected cells; host or cells: CHO cells
Nature of the data set: cell-based.

Data set [4] can be described thus: Administration in GI-physiology altered dogs (plasma pharmacokinetics). Type of data set: in vivo. The following applies: male, beagle, dog, po, 50 mg, single 50 mg capsule. As to the method: A 50 mg capsule formulation of Compound Ia was screened in gastrointestinal (GI) physiology regulated male beagle dogs. Atropine (˜20 μg/kg; IV) and pentagastrin (˜10 μg/kg; IM) were administered 15 minutes prior to formulation administration and another dose of pentagastrin (10 μg/kg; IM) was administered 30 minutes post dose. Atropine slows down canine GI motility and pentagastrin decreases pH resulting in GI conditions almost similar to that of humans. The capsules ([…]) via oral administration following an overnight fast and blood samples were drawn at 0 (predose), 0.5, 1, 2, 3, 4, 6, 8, 12, 24 and 48 hours after dosing; plasma was separated and assayed for Compound Ia content. All dogs were fed 4 hours post dose.
50 mg Compound Ia capsule contained neat 51.5 mg of Compound Ia 97% purity (50 mg of Compound Ia), filled in #AA-DB HGC Swedish orange capsule.
Bioanalytical results were received and a preliminary PK assessment was performed. Individual dog plasma Compound Ia concentration-time profiles were subjected to noncompartmental pharmacokinetic analyses (WinNonlin, Model 200). The following pharmacokinetic parameters were determined for each dog, and descriptive statistics were calculated: AUC, Cmax, and tmax.

Each structure is given as a SMILES string.

μ opioid, sequence (P35372 whole entry): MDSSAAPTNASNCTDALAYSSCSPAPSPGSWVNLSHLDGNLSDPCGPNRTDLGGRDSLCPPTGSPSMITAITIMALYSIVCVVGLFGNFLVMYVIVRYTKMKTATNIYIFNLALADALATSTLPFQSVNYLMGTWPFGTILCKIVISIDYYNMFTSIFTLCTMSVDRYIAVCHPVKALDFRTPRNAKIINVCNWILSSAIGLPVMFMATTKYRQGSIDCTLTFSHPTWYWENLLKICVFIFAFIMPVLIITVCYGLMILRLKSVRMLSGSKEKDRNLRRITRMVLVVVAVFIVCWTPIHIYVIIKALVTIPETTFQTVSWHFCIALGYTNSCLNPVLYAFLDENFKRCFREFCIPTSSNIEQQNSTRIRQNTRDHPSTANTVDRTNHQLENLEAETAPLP
Delta 2 (h), sequence (P41143 whole entry): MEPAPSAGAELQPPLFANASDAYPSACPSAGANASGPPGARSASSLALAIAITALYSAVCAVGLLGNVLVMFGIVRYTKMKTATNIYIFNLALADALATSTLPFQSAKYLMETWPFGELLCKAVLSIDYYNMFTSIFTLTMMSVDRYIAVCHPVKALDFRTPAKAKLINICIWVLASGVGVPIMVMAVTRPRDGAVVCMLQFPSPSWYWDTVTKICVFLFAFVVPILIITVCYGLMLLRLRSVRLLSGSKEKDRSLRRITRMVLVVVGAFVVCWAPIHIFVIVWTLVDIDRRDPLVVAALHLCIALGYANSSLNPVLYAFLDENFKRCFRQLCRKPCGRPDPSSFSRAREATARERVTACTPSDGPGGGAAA
Mu (h), sequence (P35372 whole entry): as the sequence (P35372 whole entry) above
T1 sequence (P35372 whole entry): as above

Consider `C[N+]1(CC2CC2)CC[C@]23c4c5ccc(O)c4O[C@H]2C(=O)CC[C@@]3(O)[C@H]1C5` (stereo partly shown) [methylnaltrexone], for which the Solubility in water result in [1] is reported as “freely soluble in water”.
As to `C[N@@+]1(CC2CC2)CC[C@]23c4c5ccc(O)c4O[C@H]2C(=O)CC[C@@]3(O)C1C5` [R-methylnaltrexone], on μ opioid, the “Activity at μ opioid receptor (agonist/antagonist)” value is recorded as “antagonist activity”.
As to `C[N+]1(CC2CC2)CC[C@]23c4c5ccc(O)c4O[C@H]2C(=O)CC[C@@]3(O)[C@H]1C5` (stereo partly shown) [S-methylnaltrexone], the “Activity at μ opioid receptor (agonist/antagonist)” value on μ opioid is recorded as “peripheral μ opioid agonist”.
Consider `C[N+]1(CC2CC2)CC[C@]23c4c5ccc(O)c4O[C@H]2[C@](O)(C(=O)O)C[C@@]3(O)[C@H]1C5` (stereo partly drawn) [Compound Ia, (3R,4R,4aS,6aR,11bS)-6-carboxy-3-(cyclopropylmethyl)-4-a,6,8-trihydroxy-3-methyl-1,2,3,4,4a,5,6,6a-octahydro-4,11-methano[1]benzofuro[3′,2′:2,3]cyclopenta[1,2-c]pyridin-3-ium], for which the logP (usually the decadic logarithm of the partition coefficient of the neutral form, usually between octanol and water) in data set [2] is -2.15. Further, the solubility (as a rule, the concentration that dissolves in the medium under given conditions) in “Aqueous solubility” was greater than 56 mg/mL. For the same compound, the “Percent Inhibition (Average; N = 2)” value is 44.47% on Delta 2 (h), 82.09% at Kappa 1 and 81.62% at Mu (h). In data set [3], the IC50 (as a rule, the midpoint of a concentration-inhibition curve) amounted to 170 nM. Further, the AUC(0-inf) (as a rule, the area under the concentration-time curve extrapolated to infinity) in [4] (Dog 1, PO) came to 4690 ng·h/mL; in [4] (Dog 2, PO) it was 7740 ng·h/mL; in [4] (Dog 3, PO), 6220 ng·h/mL; in [4] (Mean, N 3 dogs), 6220 ng·h/mL; in data set [4] (Median, N 3 dogs) it was 6220 ng·h/mL. For the same compound, the AUC(0-t) – broadly, the area under the concentration-time curve up to a stated or last time point – was 4630 ng·h/mL in [4] (Dog 1, PO); 7720 ng·h/mL in [4] (Dog 2, PO); 6210 ng·h/mL in data set [4] (Dog 3, PO); 6190 ng·h/mL in data set [4] (Mean, N 3 dogs); 6210 ng·h/mL in data set [4] (Median, N 3 dogs). The maximum concentration (Cmax) (as a rule, the peak of the concentration-time curve) in data set [4] (Dog 1, PO) turned out to be 825 ng/mL; in data set [4] (Dog 2, PO), 1670 ng/mL; in data set [4] (Dog 3, PO), 1580 ng/mL; in data set [4] (Mean, N 3 dogs), 1360 ng/mL; in data set [4] (Median, N 3 dogs) it was 1580 ng/mL. Moreover, the Tmax (in general, the time at which the peak concentration occurs) in [4] (Dog 1, PO) amounted to 2 h; in data set [4] (Dog 2, PO), 3 h; in data set [4] (Dog 3, PO) it was 1 h; in [4] (Mean, N 3 dogs), 2 h; in data set [4] (Median, N 3 dogs), 2 h. In addition, the half-life (in general, the time in which the quantity being followed falls by half) in data set [4] (Dog 1, PO) is 3.9 h; in data set [4] (Dog 2, PO), 2.8 h; in data set [4] (Dog 3, PO), 1.1 h; in data set [4] (Mean, N 3 dogs) it was 2.6 h; in data set [4] (Median, N 3 dogs), 2.8 h.

Source of the values: patent US7501434B2, “6-carboxy-normorphinan derivatives, synthesis and uses thereof” (Wyeth, priority 2006, dated 2009).
